# Molecular target: T1, purified recombinant human SYK360-635 (Homo sapiens, UniProt P43405)
# T1 construct: truncated construct of Spleen Tyrosine Kinase aa 360-635; GST; made in house
# Experiment: SYK kinase assay: 33P γATP incorporation into biotinylated peptide substrate, IC50 determination
# Assay type: biochemical
# Conditions: SYK 0.5 nM, ATP 20 μM, DYE peptide 5 μM, 30° C. 15 min; read-out: IC50 h-syk-gst-sf9-c (inactive-dephosphorylated)
# Experimental: Determination of IC50 of Spleen Tyrosine Kinase (SYK) Inhibition:
# SYK kinase assay is a standard kinase assay adapted to a 96 well plate format. This assay is performed in 96-well format for IC50 determination with […] which represented 10 half log dilutions and a 40 μL reaction volume. The assay measures the incorporation of radiolabeled ^33P γATP into an N-terminally biotinylated peptide substrate, derived from naturally occurring phosphoacceptor consensus sequence (Biotin-11aa DY*E). Phosphorylated products were detected upon termination of reactions with EDTA and the addition of Streptavidin coated beads.
# Assay plates: 96-well MultiScreen 0.65 um filter plates (Millipore Cat. No.: MADVNOB10)
# BSA: Bovine Serum Albumin Fraction V, fatty acid free (Roche Diagnostics GmbH, Cat. No. 9100221) diluted to a final concentration of 0.1%
# Assay Dilution Buffer (ADB): 50 mM HEPES, 0.1 mM EGTA, 0.1 mM Na Vanadate, 0.1 mM β-glycerophosphate, 10 mM MgCl2, 1 mM DTT, 0.1% BSA, pH 7.5
# Bead wash buffer: 10 g/L PBS (Phosphate buffered saline) with 2M NaCl+1% phosphoric acid.
# DMSO and the mixture was incubated for 10 min at RT.
# The kinase reaction was initiated by the addition of 10 μL 4× substrate cocktail containing the DYE peptide substrate [0 or 5 μM], ATP [20 μM] and ^33PγATP [2 μCi/r×n]. After incubation at 30° C. for 15 min, the reaction was terminated by the transfer of 25 μL of the reaction sample to a 96 well 0.65 μm Millipore MADVNOB membrane/plate containing 200 μL 5 mM EDTA and 20% Streptavidine coated beads in PBS.
# After the last wash membrane/plates were transferred to an adaptor plate, heat dried for 15 min at 60° C., and 50 μL scintillation cocktail was added to each well and 4 h later the amount of radioactivity was counted in a top counter.
row,IC50,SMILES
1,912 nM,"COc1ccc(Nc2nc(N3CCC(NC(=O)c4ccc(C(N)=O)nc4)C3)nc3scnc23)cc1OC (centres unmarked) [Compound I-37, N5-(1-(7-(3,4-Dimethoxyphenylamino)thiazolo[5,4-d]pyrimidin-5-yl)pyrrolidin-3-yl)pyridine-2,5-dicarboxamide]"
2,1950 nM,"COC(=O)c1ccc(C(=O)NC2CCN(c3nc(Nc4ccc(OC)c(OC)c4)c4ncsc4n3)C2)cn1 (centres unmarked) [Compound I-38, Methyl 5-(1-(7-(3,4-dimethoxyphenylamino)thiazolo[5,4-d]pyrimidin-5-yl)pyrrolidin-3-ylcarbamoyl)picolinate]"
3,129 nM,"COc1ccc(Nc2nc(N3CCC(NC(=O)c4ccc(C(=O)O)nc4)C3)nc3scnc23)cc1OC (centres unmarked) [Compound I-39, 5-(1-(7-(3,4-Dimethoxyphenylamino)thiazolo[5,4-d]pyrimidin-5-yl)pyrrolidin-3-ylcarbamoyl)picolinic acid]"
4,5410 nM,"COc1ccc(Nc2nc(N3CCCC(C(=O)Nc4ccc5c(c4)CC(=O)N5)C3)nc3scnc23)cc1OC (centres unmarked) [Compound I-40, 1-(7-(3,4-Dimethoxyphenylamino)thiazolo[5,4-d]pyrimidin-5-yl)-N-(2-oxoindolin-5-yl)piperidine-3-carboxamide]"
5,1690 nM,"COc1ccc(Nc2nc(N3CCCC(C(=O)Nc4ccc5[nH]ncc5c4)C3)nc3scnc23)cc1OC (centres unmarked) [Compound I-41, 1-(7-(3,4-Dimethoxyphenylamino)thiazolo[5,4-d]pyrimidin-5-yl)-N-(1H-indazol-5-yl)piperidine-3-carboxamide]"
6,164 nM,"COc1ccc(Nc2nc(N3CCCC(C(=O)Nc4ccc(C(=O)O)c(OC)c4)C3)nc3scnc23)cc1OC (centres unmarked) [Compound I-43, 4-({1-[7-(3,4-Dimethoxy-phenylamino)-thiazolo[5,4-d]pyrimidin-5-yl]-piperidine-3-carbonyl}-amino)-2-methoxy-benzoic acid]"
7,136 nM,"COc1ccc(Nc2nc(N3CCCC(C(=O)Nc4ccc(-c5noc(=O)[nH]5)cc4)C3)nc3scnc23)cc1OC (centres unmarked) [Compound I-44, 1-(7-(3,4-Dimethoxyphenylamino)thiazolo[5,4-d]pyrimidin-5-yl)-N-(4-(5-oxo-4,5-dihydro-1,2,4-oxadiazol-3-yl)phenyl)piperidine-3-carboxamide]"
8,922 nM,"COc1ccc(Nc2nc(N3CCCC(C(=O)Nc4ccc5cn[nH]c5c4)C3)nc3scnc23)cc1OC (centres unmarked) [Compound I-45, 1-(7-(3,4-Dimethoxyphenylamino)thiazolo[5,4-d]pyrimidin-5-yl)-N-(1H-indazol-6-yl)piperidine-3-carboxamide]"
9,1030 nM,"COc1ccc(Nc2nc(N3CCCC(C(=O)Nc4ccc5c(c4)CNC5=O)C3)nc3scnc23)cc1OC (centres unmarked) [Compound I-46, 1-(7-(3,4-Dimethoxyphenylamino)thiazolo[5,4-d]pyrimidin-5-yl)-N-(1-oxoisoindolin-5-yl)piperidine-3-carboxamide]"
10,71 nM,"COc1ccc(Nc2nc(N3CCCC(C(=O)Nc4ccc(C(=O)O)c(O)c4)C3)nc3scnc23)cc1OC (centres unmarked) [Compound I-47, 4-(1-(7-(3,4-Dimethoxyphenylamino)thiazolo[5,4-d]pyrimidin-5-yl)piperidine-3-carboxamido)-2-hydroxybenzoic acid]"
11,4210 nM,"COc1ccc(Nc2nc(N3CCCC(C(=O)NC4CNC(=O)C4)C3)nc3scnc23)cc1OC (centres unmarked) [Compound I-48, 1-(7-(3,4-Dimethoxyphenylamino)thiazolo[5,4-d]pyrimidin-5-yl)-N-(5-oxopyrrolidin-3-yl)piperidine-3-carboxamide]"
12,1520 nM,"COc1ccc(Nc2nc(N3CCCC(C(=O)Nc4cnccn4)C3)nc3scnc23)cc1OC (centres unmarked) [Compound I-49, 1-(7-(3,4-Dimethoxyphenylamino)thiazolo[5,4-d]pyrimidin-5-yl)-N-(pyrazin-2-yl)piperidine-3-carboxamide]"
13,1920 nM,"COc1ccc(Nc2nc(N3CCCC(C(=O)Nc4ccc5c(c4)C(=O)NC5=O)C3)nc3scnc23)cc1OC (centres unmarked) [Compound I-50, 1-(7-(3,4-Dimethoxyphenylamino)thiazolo[5,4-d]pyrimidin-5-yl)-N-(1,3-dioxoisoindolin-5-yl)piperidine-3-carboxamide]"
14,156 nM,"COc1ccc(Nc2nc(N3CCCC(C(=O)Nc4ccc(-c5nnc(S)o5)cc4)C3)nc3scnc23)cc1OC (centres unmarked) [Compound I-51, 1-(7-(3,4-Dimethoxyphenylamino)thiazolo[5,4-d]pyrimidin-5-yl)-N-(4-(5-mercapto-1,3,4-oxadiazol-2-yl)phenyl)piperidine-3-carboxamide]"
15,441 nM,"COc1ccc(Nc2nc(N3CCCC(C(=O)Nc4ccc(-c5nnc(S)n5C)cc4)C3)nc3scnc23)cc1OC (centres unmarked) [Compound I-52, 1-(7-(3,4-Dimethoxyphenylamino)thiazolo[5,4-d]pyrimidin-5-yl)-N-(4-(5-mercapto-4-methyl-4H-1,2,4-triazol-3-yl)phenyl)piperidine-3-carboxamide]"
16,3870 nM,"O=C(O)c1cccc(-c2nc(Nc3cccc(N4CC5(COC5)C4)c3)c3ncsc3n2)c1 [Compound I-53, 3-{7-[3-(2-Oxa-6-aza-spiro[3.3]hept-6-yl)-phenylamino]-thiazolo[5,4-d]pyrimidin-5-yl}-benzoic acid]"
17,6150 nM,"COc1ccc(Nc2nc(N3CCC(NC(=O)c4ccc(C(=O)O)cc4)C3)nc3scnc23)nc1OC (centres unmarked) [Compound I-55, 4-(1-(7-(5,6-Dimethoxypyridin-2-ylamino)thiazolo[5,4-d]pyrimidin-5-yl)pyrrolidin-3-ylcarbamoyl)benzoic acid]"
18,3180 nM,"COC(=O)c1cccc(-c2nc(Nc3cccc(C(F)(F)F)c3)c3ncsc3n2)c1 [Compound I-56, Methyl 3-(7-(3-(trifluoromethyl)phenylamino)thiazolo[5,4-d]pyrimidin-5-yl)benzoate]"
19,4250 nM,"O=C(O)c1cccc(-c2nc(Nc3cccc(C(F)(F)F)c3)c3ncsc3n2)c1 [Compound I-57, 3-[7-(3-Trifluoromethyl-phenylamino)-thiazolo[5,4-d]pyrimidin-5-yl]-benzoic acid]"
20,2250 nM,"COc1cc(Nc2nc(-c3cccc(C(N)=O)c3)nc3scnc23)cc(OC)c1OC [Compound I-58, 3-[7-(3,4,5-Trimethoxy-phenylamino)-thiazolo[5,4-d]pyrimidin-5-yl]-benzamide]"
21,757 nM,"C[C@H]1CCCN1c1cccc(Nc2nc(N3CCCC(O)C3)nc3scnc23)c1 (stereo partly drawn) [Compound I-59, 1-(7-(3-((S)-2-Methylpyrrolidin-1-yl)phenylamino)thiazolo[5,4-d]pyrimidin-5-yl)piperidin-3-ol]"
22,1110 nM,"COc1cc(Nc2nc(-c3ccc(C(N)=O)cc3)nc3scnc23)cc(N2CCC[C@@H]2C)c1 [Compound I-60, 4-{7-[3-Methoxy-5-((S)-2-methyl-pyrrolidin-1-yl)-phenylamino]-thiazolo[5,4-d]pyrimidin-5-yl}-benzamide]"
23,1040 nM,"COc1ccc(-c2nc(Nc3cccc(N4CCC[C@@H]4C)c3)c3ncsc3n2)cn1 [Compound I-61, (S)-5-(6-Methoxypyridin-3-yl)-N-(3-(2-methylpyrrolidin-1-yl)phenyl)thiazolo[5,4-d]pyrimidin-7-amine]"
24,337 nM,"C[C@H]1CCCN1c1cccc(Nc2nc(-c3ccc(C(N)=O)cc3)nc3scnc23)c1 [Compound I-62, 4-{7-[3-((S)-2-Methyl-pyrrolidin-1-yl)-phenylamino]-thiazolo[5,4-d]pyrimidin-5-yl}-benzamide]"
25,53 nM,"COc1ccc(Nc2nc(-c3cccc(C(=O)Nc4ccc(C5SC(=O)NC5=O)cc4)c3)nc3scnc23)cc1OC (centres unmarked) [Compound I-63, 3-[7-(3,4-Dimethoxy-phenylamino)-thiazolo[5,4-d]pyrimidin-5-yl]-N-[4-(2,4-dioxo-thiazolidin-5-yl)-phenyl]-benzamide]"
26,113 nM,"COc1ccc(Nc2nc(-c3ccc(C(N)=O)cc3)nc3scnc23)cc1OC [Compound I-64, 4-[7-(3,4-Dimethoxy-phenylamino)-thiazolo[5,4-d]pyrimidin-5-yl]-benzamide]"
27,351 nM,"C[C@H]1CCCN1c1cccc(Nc2nc(-c3ccc(C(=O)NCCN(C)C)cc3)nc3scnc23)c1 [Compound I-65, (S)-N-(2-(Dimethylamino)ethyl)-4-(7-(3-(2-methylpyrrolidin-1-yl)phenylamino)thiazolo[5,4-d]pyrimidin-5-yl)benzamide]"
28,278 nM,"COc1ccc(Nc2nc(-c3ccc(C(=O)NCCN(C)C)cc3)nc3scnc23)cc1OC [Compound I-66, 4-(7-(3,4-Dimethoxyphenylamino)thiazolo[5,4-d]pyrimidin-5-yl)-N-(2-(dimethylamino)ethyl)benzamide]"
29,233 nM,"COc1ccc(Nc2nc(-c3cccc(C(N)=O)c3)nc3scnc23)cc1OC [Compound I-68, 3-[7-(3,4-Dimethoxy-phenylamino)-thiazolo[5,4-d]pyrimidin-5-yl]-benzamide]"
